Data on 1 compound can be found in patent US9492471B2, “Methods of treating a disease or disorder associated with Bruton'S Tyrosine Kinase” (Celgene Avilomics Research, Inc., priority 2013, dated 2016).

Experiment in all cases: HotSpot kinase profiling
Holding throughout (format): biochemical

The target in one assay is T1, GRK1 (Homo sapiens, UniProt Q15835).
T1 construct: purchased Reaction Biology Corp
T1 sequence (Q15835 1-563): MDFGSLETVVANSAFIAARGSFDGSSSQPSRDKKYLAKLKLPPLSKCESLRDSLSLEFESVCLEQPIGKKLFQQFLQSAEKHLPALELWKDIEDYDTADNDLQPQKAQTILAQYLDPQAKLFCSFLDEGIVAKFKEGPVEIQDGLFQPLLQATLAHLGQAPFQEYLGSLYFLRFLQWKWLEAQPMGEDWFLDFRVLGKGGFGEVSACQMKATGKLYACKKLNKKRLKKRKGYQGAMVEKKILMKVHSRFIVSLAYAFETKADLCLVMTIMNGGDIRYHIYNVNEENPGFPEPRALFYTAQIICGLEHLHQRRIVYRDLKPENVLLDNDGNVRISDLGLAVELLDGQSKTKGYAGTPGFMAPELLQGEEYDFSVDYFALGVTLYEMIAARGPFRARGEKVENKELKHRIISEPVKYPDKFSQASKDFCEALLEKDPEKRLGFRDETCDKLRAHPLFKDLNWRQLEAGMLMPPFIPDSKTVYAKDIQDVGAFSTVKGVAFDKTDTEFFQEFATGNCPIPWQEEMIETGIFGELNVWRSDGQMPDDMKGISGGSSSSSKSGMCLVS
How it is done:
(§1) The binding assay system for profiling kinase activity were based upon HotSpot technology (Reaction Biology Corp.; Malvern, Pa., USA) and utilized radio-isotope-based P81 filtration. […] Substrates for the various kinases tested against Compound 2 (substrate information available on the Reaction Biology Corp. website) were prepared fresh daily in Reaction Buffer. Any required cofactors were then added to the substrate solution. The identification and selection of the appropriate cofactor for each kinase is within the ability of a person skilled in the art. See, for example, Handbook of Assay Development in Drug Discovery, Ed. Lisa K. Minor, 2006: CRC Press, Boca Raton, Fla.; Gao et al., “A broad activity screen in support of a chemogenomic map for kinase signalling research and drug discovery,” Biochem J. 2013, 451(2): 313-28; and Eglen et al., “Drug discovery and the human kinome: Recent trends,” Pharmacology & Therapeutics 2011, 130(2): 144-156. The kinase was then added to the substrate solution and gently mixed. […] This was followed by incubation at room temperature for 2 h. The reaction was terminated and any unreacted phosphate was washed away using 0.1% phosphoric acid prior to detection utilizing a proprietary technology. […] DMSO was used as the negative control.
(§2) Percent inhibition was expressed as an average where the assay was performed more than once, e.g., in duplicate.

In another assay the target is T2, CDK6/cyclin D1 (Homo sapiens, UniProt Q00534).
T2 construct: purchased Reaction Biology Corp
Here is the method:
as §1, §2

The target of a further assay is T3, TLK1 (Homo sapiens, UniProt Q9UKI8).
T3 construct: purchased Reaction Biology Corp
T3 sequence (Q9UKI8 1-766): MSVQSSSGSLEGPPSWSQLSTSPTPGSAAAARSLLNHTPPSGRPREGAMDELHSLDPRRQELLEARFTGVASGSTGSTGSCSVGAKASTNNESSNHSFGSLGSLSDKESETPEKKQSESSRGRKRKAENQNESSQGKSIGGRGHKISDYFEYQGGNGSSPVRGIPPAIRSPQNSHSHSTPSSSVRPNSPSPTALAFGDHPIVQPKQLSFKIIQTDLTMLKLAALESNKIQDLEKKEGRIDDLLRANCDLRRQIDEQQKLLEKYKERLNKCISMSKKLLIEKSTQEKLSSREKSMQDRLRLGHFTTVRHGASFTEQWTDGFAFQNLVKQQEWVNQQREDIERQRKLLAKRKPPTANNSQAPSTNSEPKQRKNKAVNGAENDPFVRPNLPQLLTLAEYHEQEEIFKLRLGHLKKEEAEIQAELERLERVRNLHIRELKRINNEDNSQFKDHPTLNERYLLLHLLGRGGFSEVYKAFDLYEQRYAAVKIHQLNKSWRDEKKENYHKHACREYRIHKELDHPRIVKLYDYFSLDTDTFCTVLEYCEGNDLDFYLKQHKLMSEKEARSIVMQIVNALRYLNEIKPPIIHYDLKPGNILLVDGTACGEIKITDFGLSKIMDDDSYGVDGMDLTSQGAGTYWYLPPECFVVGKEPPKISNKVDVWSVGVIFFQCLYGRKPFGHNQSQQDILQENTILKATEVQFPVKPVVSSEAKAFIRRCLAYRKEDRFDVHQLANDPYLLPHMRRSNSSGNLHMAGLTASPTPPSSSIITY
How it is done: as §1, §2

The next assay has as its target T4, PKG2/PRKG2 (Homo sapiens, UniProt Q13237).
T4 construct: purchased Reaction Biology Corp
T4 sequence (Q13237 1-762): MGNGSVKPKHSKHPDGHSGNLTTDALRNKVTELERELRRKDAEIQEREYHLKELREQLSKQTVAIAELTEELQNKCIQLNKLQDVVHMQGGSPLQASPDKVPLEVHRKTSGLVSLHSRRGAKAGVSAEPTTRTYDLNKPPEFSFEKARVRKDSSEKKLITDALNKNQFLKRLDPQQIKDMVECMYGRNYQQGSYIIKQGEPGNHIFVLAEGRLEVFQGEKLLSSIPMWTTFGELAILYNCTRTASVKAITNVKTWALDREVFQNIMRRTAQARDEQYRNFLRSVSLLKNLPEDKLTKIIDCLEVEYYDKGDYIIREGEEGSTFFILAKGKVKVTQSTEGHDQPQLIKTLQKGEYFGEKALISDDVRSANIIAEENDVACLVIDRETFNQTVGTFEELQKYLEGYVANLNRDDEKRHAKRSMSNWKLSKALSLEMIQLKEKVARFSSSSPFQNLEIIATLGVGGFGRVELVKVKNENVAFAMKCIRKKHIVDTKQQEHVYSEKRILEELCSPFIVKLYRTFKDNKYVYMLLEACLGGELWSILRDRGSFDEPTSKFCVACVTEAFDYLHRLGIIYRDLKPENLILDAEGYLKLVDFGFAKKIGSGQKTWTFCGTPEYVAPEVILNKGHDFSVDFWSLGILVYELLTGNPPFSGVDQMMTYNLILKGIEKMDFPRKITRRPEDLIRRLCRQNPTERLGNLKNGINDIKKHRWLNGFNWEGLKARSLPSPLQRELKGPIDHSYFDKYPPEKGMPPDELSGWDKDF
Here is the method: as §1, §2

The mark [1] stands for this setting: read-out: % Enzyme Activity (relative to DMSO controls) Run 1.
[2] abbreviates: read-out: % Enzyme Activity (relative to DMSO controls) Run 2.

Like-named read-outs stand apart in the source and are kept apart here.

T2 sequence (Q00534 whole entry): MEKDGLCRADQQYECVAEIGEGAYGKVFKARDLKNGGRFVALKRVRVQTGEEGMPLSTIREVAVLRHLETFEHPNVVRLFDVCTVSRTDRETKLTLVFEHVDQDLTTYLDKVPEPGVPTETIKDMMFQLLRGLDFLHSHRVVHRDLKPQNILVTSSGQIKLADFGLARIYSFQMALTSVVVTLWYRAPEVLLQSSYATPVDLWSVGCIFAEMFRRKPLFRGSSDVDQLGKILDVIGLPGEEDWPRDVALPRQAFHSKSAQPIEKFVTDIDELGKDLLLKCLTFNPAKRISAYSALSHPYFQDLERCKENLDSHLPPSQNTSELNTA
T2 sequence (P24385 whole entry partner): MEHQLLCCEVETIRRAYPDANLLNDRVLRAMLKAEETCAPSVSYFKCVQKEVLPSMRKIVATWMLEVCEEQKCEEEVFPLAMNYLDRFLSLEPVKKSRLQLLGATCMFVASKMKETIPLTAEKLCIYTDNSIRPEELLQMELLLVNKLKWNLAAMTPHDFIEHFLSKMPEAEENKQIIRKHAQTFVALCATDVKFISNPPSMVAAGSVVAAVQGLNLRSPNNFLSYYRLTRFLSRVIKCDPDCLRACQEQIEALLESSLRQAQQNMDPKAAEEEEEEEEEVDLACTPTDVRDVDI

The inhibition is the drop in the measured response relative to a control, in per cent. On to `C=CC(=O)Nc1cccc(Nc2nc(Nc3ccc(OCCOC)c(F)c3)ncc2F)c1` [Compound 2], for which the inhibition at 3 µM on GRK1 was -3.47%; against CDK6/cyclin D1, -0.92%; against TLK1, -2.91%; on PKG2/PRKG2, 14.2%. Further, the remaining activity at 3 µM worked out at 104% on GRK1 (setting [1]); 103% on GRK1 (setting [2]); 101% on CDK6/cyclin D1 (setting [1]); 100% on CDK6/cyclin D1 (setting [2]); 102% on TLK1 (setting [1]); 103% at TLK1 (setting [2]). Further, the values for the remaining activity at 3 µM on PKG2/PRKG2 (setting [1]) and at PKG2/PRKG2 (setting [2]) were 87.2% and 84.5%, respectively.
